Assay results: patent publication US20110112282A1, “IDO INHIBITORS AND THERAPEUTIC USES THEREOF” (priority 2008, published 2011)

Molecular target: purified recombinant IDO (Homo sapiens, UniProt P14902)
Assay: Enzymatic IDO inhibition assay (Takikawa et al., modified; kynurenine by HPLC)
Type: biochemical
Conditions: result in words; oxidized dimeric analogues
Description: The enzymatic inhibition assays were performed as described by Takikawa et al. [Takikawa, O.; Kuroiwa, T.; Yamazaki, F.; Kido, R. J Biol Chem, 1988, 263, 2041-2048.] with some modifications. Briefly, the reaction mixture (100 μl) contained potassium phosphate buffer (100 mM, pH 6.5) ascorbic acid (20 mM), catalase (200 units/ml), methylene blue (10 μM), purified recombinant IDO (2 ng/μl), and L-Trp (200 μM). The inhibitors were serially diluted ranging from 0.1 to 1000 μM. The reaction was carried out at 37° C. for 60 min and stopped by the addition of 30% (w/v) trichloroacetic acid (40 μl). To convert the product of Trp dioxygenation by IDO, N-formylkynurenine, to spectroscopically detectable kynurenine, the tubes were incubated at 50° C. for 30 min, followed by a centrifugation at 10000 g for 20 min. Lastly, 100 μl of supernatant from each probe was transfered to another tube for HPLC analysis. The mobile phase for HPLC measurements consisted of 50% sodium citrate buffer (40 mM, pH 2.25) and 50% methanol with 400 μM SDS. The flow rate through the S5-ODS1 column was chosen to be 1 ml/min, and kynurenine was detected at a wavelength of 365 nm.

Sequence of purified recombinant IDO (P14902 whole entry): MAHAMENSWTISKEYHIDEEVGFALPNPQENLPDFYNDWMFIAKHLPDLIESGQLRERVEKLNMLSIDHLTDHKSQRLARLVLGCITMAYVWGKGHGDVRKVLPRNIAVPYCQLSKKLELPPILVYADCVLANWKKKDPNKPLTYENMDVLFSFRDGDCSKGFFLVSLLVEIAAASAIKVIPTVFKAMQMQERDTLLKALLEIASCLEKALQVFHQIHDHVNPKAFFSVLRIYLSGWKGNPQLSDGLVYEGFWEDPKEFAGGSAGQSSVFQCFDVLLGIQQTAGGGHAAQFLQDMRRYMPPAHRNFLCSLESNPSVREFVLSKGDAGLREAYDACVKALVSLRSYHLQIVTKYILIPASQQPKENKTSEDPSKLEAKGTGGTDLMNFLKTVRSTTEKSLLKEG

Row | SMILES | activity in vitro
1 | CC(C)/C=C1/C=C(C2=C/C(=N\C(C)C)c3ccccc3C2=O)C(=O)c2ccccc21 [Example 23] | excellent activity
2 | CCC(CC)CC1C=C(C2=CC(CC(CC)CC)c3ccccc3C2=O)C(=O)c2ccccc21 (centres unmarked) [Example 24] | excellent activity
